Data reported in patent US11384063B2, “Modulators of estrogen receptor proteolysis and associated methods of use” (Arvinas Operations, Inc., priority 2017, dated 2022).
pIC50: −log10 of the molar value.

Target: T1, ERα (Homo sapiens, UniProt P03372)
T1 sequence (P03372 1-595): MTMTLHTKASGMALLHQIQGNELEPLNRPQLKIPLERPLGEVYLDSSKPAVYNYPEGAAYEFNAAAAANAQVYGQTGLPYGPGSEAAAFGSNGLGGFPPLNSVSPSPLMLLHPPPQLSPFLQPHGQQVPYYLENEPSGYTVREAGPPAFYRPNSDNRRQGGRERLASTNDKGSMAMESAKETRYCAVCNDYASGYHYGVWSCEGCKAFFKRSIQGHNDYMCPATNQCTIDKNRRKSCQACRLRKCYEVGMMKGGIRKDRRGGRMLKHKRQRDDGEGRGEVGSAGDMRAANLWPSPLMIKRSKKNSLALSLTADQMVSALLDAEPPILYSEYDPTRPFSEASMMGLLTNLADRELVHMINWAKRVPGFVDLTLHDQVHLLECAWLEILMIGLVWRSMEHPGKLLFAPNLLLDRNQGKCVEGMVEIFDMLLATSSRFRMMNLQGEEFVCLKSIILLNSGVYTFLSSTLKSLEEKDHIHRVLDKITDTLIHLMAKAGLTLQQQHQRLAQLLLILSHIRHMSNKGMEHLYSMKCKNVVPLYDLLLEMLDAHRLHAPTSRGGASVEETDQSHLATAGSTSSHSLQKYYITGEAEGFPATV
Test: ERE luciferase reporter gene assay in T47D-KBluc cells (target engagement)
Format: cell-based
Design: T47D human breast cancer cells stably transfected with estrogen responsive element/promoter/luciferase reporter gene; host or cells: T47D-KBluc cells
Settings: 10% FBS, 24 hours, Table 1 cereblon centric PROTACs, read-out: ER-α Luciferase IC50
Method: Chimeric molecules were assessed for target engagement in T47D cells using the commercial kit of ERE luciferase reporter gene assay. In the assay, 10% FBS was included and estrogen level was measured to be 10 pM.
ERE Luciferase Assay for Compounds in Table 1-3.
T47D-KBluc cells (ATCC #CRL_2865, T47D human breast cancer cells stably transfected with estrogen responsive element/promoter/luciferase reporter gene) were seeded into 96-well white opaque plates in RPMI growth medium supplemented with 10% fetal bovine serum and allowed to adhere overnight in a 37° C. humidified incubator. The following day, cells were treated with PROTACs in a 12-point concentration curve (top final concentration of 300 nM with subsequent concentrations being 3-fold less with 2 pM being the lowest concentration in the assay). Each PROTAC was tested independently in two experiments on 96-well plates. After 24 hours, media was removed and lysis buffer was added to the wells. Following lysis, Bright-Glo™ Luciferase Assay Substrate (Prornega, Madison Wis.) was added and the luciferase activity was measured using a Cytation 3 plate reader (TioTek™, Winooski, Vt.). Each compound was assayed in duplicates and the activity was calculated as IC50 using GraphPad Prism software (San Diego, Calif.).

Row | Compound | pIC50
1 | O=C(CN1CCN(CCOc2ccc(Oc3c(-c4ccc(Br)cc4)sc4cc(O)ccc34)cc2)CC1)NCc1ccc2c(c1)CN(C1CCC(=O)NC1=O)C2=O (centres unmarked) [Compound 1] | 7.90
2 | O=C1CCC(N2Cc3c(NCCN4CCN(CCOc5ccc(Oc6c(-c7ccccc7)sc7cc(O)ccc67)cc5)CC4)cccc3C2=O)C(=O)N1 (centres unmarked) [Compound 2] | 9.44
3 | O=C1CCC(N2C(=O)c3cccc(NCCN4CCN(CCOc5ccc(Oc6c(-c7ccc(O)cc7)sc7cc(O)ccc67)cc5)CC4)c3C2=O)C(=O)N1 (centres unmarked) [Compound 3] | 9.85
4 | O=C1CCC(N2Cc3c(NCCN4CCN(CCOc5ccc(Oc6c(-c7ccc(O)cc7)sc7cc(O)ccc67)cc5)CC4)cccc3C2=O)C(=O)N1 (centres unmarked) [Compound 4] | 10.05
5 | O=C1CCC(N2Cc3c(NCCN4CCN(CCOc5ccc(Oc6c(-c7ccc(Br)cc7)sc7cc(O)ccc67)cc5)CC4)cccc3C2=O)C(=O)N1 (centres unmarked) [Compound 5] | 9.05
6 | O=C1CCC(N2C(=O)c3cccc(NCCN4CCN(CCOc5ccc(Oc6c(-c7ccc(Br)cc7)sc7cc(O)ccc67)cc5)CC4)c3C2=O)C(=O)N1 (centres unmarked) [Compound 6] | 8.89
7 | O=C1CCC(N2Cc3c(OCCN4CCN(CCOc5ccc(Oc6c(-c7ccc(Br)cc7)sc7cc(O)ccc67)cc5)CC4)cccc3C2=O)C(=O)N1 (centres unmarked) [Compound 7] | 8.96
8 | O=C1CC[C@H](N2Cc3cc(OCC(=O)N4CCN(CCOc5ccc(Oc6c(-c7ccc(Br)cc7)sc7cc(O)ccc67)cc5)CC4)ccc3C2=O)C(=O)N1 [Compound 8] | 8.72
9 | O=C1CC[C@@H](N2Cc3c(OCc4ccc(CN5CCN(CCOc6ccc(Oc7c(-c8ccc(Br)cc8)sc8cc(O)ccc78)cc6)CC5)nc4)cccc3C2=O)C(=O)N1 [Compound 9] | 8.54
10 | O=C1CCC(N2C(=O)c3cccc(NCCN4CCN(CCOc5ccc(Oc6c(-c7ccccc7)sc7cc(O)ccc67)cc5)CC4)c3C2=O)C(=O)N1 (centres unmarked) [Compound 10] | 9.20
11 | C[C@H](COc1ccc(Oc2c(-c3ccc(Br)cc3)sc3cc(O)ccc23)cc1)N1CCN(CC(=O)NCc2ccc3c(c2)CN(C2CCC(=O)NC2=O)C3=O)CC1 (stereo partly drawn) [Compound 11, 2-{4-[(2R)-1-(4-{[2-(4-bromophenyl)-6-hydroxy-1-benzothiophen-3-yl]oxy}phenoxy)propan-2-yl]piperazin-1-yl}-N-{[2-(2,6-dioxopiperidin-3-yl)-1-oxo-2,3-dihydro-1H-isoindol-5-yl]methyl}acetamide] | 8.59
12 | C[C@@H](COc1ccc(Oc2c(-c3ccc(Br)cc3)sc3cc(O)ccc23)cc1)N1CCN(CC(=O)NCc2ccc3c(c2)CN(C2CCC(=O)NC2=O)C3=O)CC1 (some centres unmarked) [Compound 12] | 8.60
13 | C[C@H](COc1ccc(Oc2c(-c3ccc(Br)cc3)sc3cc(O)ccc23)cc1)N1CCN(CCOc2cccc3c2CN(C2CCC(=O)NC2=O)C3=O)CC1 (some centres unmarked) [Compound 13] | 8.89
14 | Cc1nc2c(NCCN3CCN(CCOc4ccc(Oc5c(-c6ccc(Br)cc6)sc6cc(O)ccc56)cc4)CC3)cccc2c(=O)n1C1CCC(=O)NC1=O (centres unmarked) [Compound 14] | 7.75
15 | C[C@@H](COc1ccc(Oc2c(-c3ccc(Br)cc3)sc3cc(O)ccc23)cc1)N1CCN(CCOc2cccc3c2CN(C2CCC(=O)NC2=O)C3=O)CC1 (some centres unmarked) [Compound 15] | 8.77
16 | Cc1nc2c(OCCN3CCN(CCOc4ccc(Oc5c(-c6ccc(Br)cc6)sc6cc(O)ccc56)cc4)CC3)cccc2c(=O)n1C1CCC(=O)NC1=O (centres unmarked) [Compound 16] | 8.06
17 | O=C1CCC(N2Cc3c(OCCOCCOc4ccc(Oc5c(-c6ccc(Br)cc6)sc6cc(O)ccc56)cc4)cccc3C2=O)C(=O)N1 (centres unmarked) [Compound 17] | 8.54
18 | O=C1CCC(N2Cc3c(NCCOCCOCCOCCOCCOc4ccc(Oc5c(-c6ccc(Br)cc6)sc6cc(O)ccc56)cc4)cccc3C2=O)C(=O)N1 (centres unmarked) [Compound 18] | 7.09
19 | O=C1CCC(N2Cc3c(OCCOCCOCCOc4ccc(Oc5c(-c6ccc(Br)cc6)sc6cc(O)ccc56)cc4)cccc3C2=O)C(=O)N1 (centres unmarked) [Compound 19] | 8.05
20 | O=C1CCC(N2C(=O)c3cccc(NCCOCCOCCOCCOCCOc4ccc(Oc5c(-c6ccc(Br)cc6)sc6cc(O)ccc56)cc4)c3C2=O)C(=O)N1 (centres unmarked) [Compound 20] | 7.40
21 | O=C1CCC(N2Cc3c(OCCOCCOCCOCCOc4ccc(Oc5c(-c6ccc(Br)cc6)sc6cc(O)ccc56)cc4)cccc3C2=O)C(=O)N1 (centres unmarked) [Compound 21] | 7.76
22 | O=C1CCC(N2Cc3c(NCCOCCOCCOCCOc4ccc(Oc5c(-c6ccc(Br)cc6)sc6cc(O)ccc56)cc4)cccc3C2=O)C(=O)N1 (centres unmarked) [Compound 22] | 7.38

Row | Compound | pIC50
23 | O=C1CCC(N2C(=O)c3cccc(NCCOCCOCCOCCOc4ccc(Oc5c(-c6ccc(Br)cc6)sc6cc(O)ccc56)cc4)c3C2=O)C(=O)N1 (centres unmarked) [Compound 23] | 7.65
24 | O=C1CCC(N2Cc3c(NCCOCCOCCOc4ccc(Oc5c(-c6ccc(Br)cc6)sc6cc(O)ccc56)cc4)cccc3C2=O)C(=O)N1 (centres unmarked) [Compound 24] | 7.77
25 | O=C1CCC(N2Cc3c(OCCOCCOCCOCCOCCOc4ccc(Oc5c(-c6ccc(Br)cc6)sc6cc(O)ccc56)cc4)cccc3C2=O)C(=O)N1 (centres unmarked) [Compound 25] | 8.07
26 | O=C1CCC(N2C(=O)c3cccc(NCCOCCOCCOc4ccc(Oc5c(-c6ccc(Br)cc6)sc6cc(O)ccc56)cc4)c3C2=O)C(=O)N1 (centres unmarked) [Compound 26] | 8.01
27 | O=C1CCC(N2Cc3c(NCCOCCOc4ccc(Oc5c(-c6ccc(Br)cc6)sc6cc(O)ccc56)cc4)cccc3C2=O)C(=O)N1 (centres unmarked) [Compound 27] | 8.08
28 | O=C1CCC(N2Cc3c(OCCOc4ccc(Oc5c(-c6ccc(Br)cc6)sc6cc(O)ccc56)cc4)cccc3C2=O)C(=O)N1 (centres unmarked) [Compound 28] | 8.57
29 | O=C1CCC(N2C(=O)c3cccc(NCCOCCOc4ccc(Oc5c(-c6ccc(Br)cc6)sc6cc(O)ccc56)cc4)c3C2=O)C(=O)N1 (centres unmarked) [Compound 29] | 7.72
30 | O=C1CCC(N2Cc3cc(OCCN4CCN(CCOc5ccc(Oc6c(-c7ccc(Br)cc7)sc7cc(O)ccc67)cc5)CC4)ccc3C2=O)C(=O)N1 (centres unmarked) [Compound 30] | 8.89
31 | O=C1CCC(N2C(=O)c3cccc(NCCOc4ccc(Oc5c(-c6ccc(Br)cc6)sc6cc(O)ccc56)cc4)c3C2=O)C(=O)N1 (centres unmarked) [Compound 32] | 8.09
32 | O=C1CCC(N2Cc3cc(OCCCN4CCN(CCOc5ccc(Oc6c(-c7ccc(Br)cc7)sc7cc(O)ccc67)cc5)CC4)ccc3C2=O)C(=O)N1 (centres unmarked) [Compound 34] | 9.00
33 | O=C1CCC(N2Cc3cc(OCCCOCCCOc4ccc(Oc5c(-c6ccc(Br)cc6)sc6cc(O)ccc56)cc4)ccc3C2=O)C(=O)N1 (centres unmarked) [Compound 35] | 8.00
34 | O=C1CCC(N2Cc3cc(OCCCOCCCOCCCOc4ccc(Oc5c(-c6ccc(Br)cc6)sc6cc(O)ccc56)cc4)ccc3C2=O)C(=O)N1 (centres unmarked) [Compound 36] | 8.33
35 | O=C1CCC(N2Cc3c(OCCN4CC5(CN(CCOc6ccc(Oc7c(-c8ccc(Br)cc8)sc8cc(O)ccc78)cc6)C5)C4)cccc3C2=O)C(=O)N1 (centres unmarked) [Compound 37] | 8.38
36 | O=C1CC[C@@H](N2Cc3cc(OCCN4C[C@H]5C[C@@H]4CN5CCOc4ccc(Oc5c(-c6ccc(Br)cc6)sc6cc(O)ccc56)cc4)ccc3C2=O)C(=O)N1 [Compound 38] | 8.96
37 | O=C1CCC(N2Cc3cc(OCCOCCOCCOc4ccc(Oc5c(-c6ccc(Br)cc6)sc6cc(O)ccc56)cc4)ccc3C2=O)C(=O)N1 (centres unmarked) [Compound 39] | 8.51
38 | O=C1CCC(N2Cc3cc(OCCCOCCOc4ccc(Oc5c(-c6ccc(Br)cc6)sc6cc(O)ccc56)cc4)ccc3C2=O)C(=O)N1 (centres unmarked) [Compound 40] | 8.41
39 | O=C1CC[C@H](N2Cc3cc(OCCN4CC5(CN(CCOc6ccc(Oc7c(-c8ccc(Br)cc8)sc8cc(O)ccc78)cc6)C5)C4)ccc3C2=O)C(=O)N1 [Compound 41] | 8.62
40 | O=C1CC[C@H](N2Cc3cc(OCCN4C[C@@H]5C[C@H]4CN5CCOc4ccc(Oc5c(-c6ccc(Br)cc6)sc6cc(O)ccc56)cc4)ccc3C2=O)C(=O)N1 [Compound 42] | 9.28
41 | O=C1CCC(N2Cc3cc(OCCCOCCOCCOc4ccc(Oc5c(-c6ccc(Br)cc6)sc6cc(O)ccc56)cc4)ccc3C2=O)C(=O)N1 (centres unmarked) [Compound 43] | 8.21
42 | O=C1CC[C@H](N2Cc3cc(OCCOC4CCN(CCOc5ccc(Oc6c(-c7ccc(Br)cc7)sc7cc(O)ccc67)cc5)CC4)ccc3C2=O)C(=O)N1 [Compound 44] | 9.27
43 | O=C1CCC(N2Cc3cc(OCCCOCCCOCCOc4ccc(Oc5c(-c6ccc(Br)cc6)sc6cc(O)ccc56)cc4)ccc3C2=O)C(=O)N1 (centres unmarked) [Compound 45] | 8.19
44 | O=C1CCC(N2Cc3cc(CCC(=O)N4CCN(CCOc5ccc(Oc6c(-c7ccc(Br)cc7)sc7cc(O)ccc67)cc5)CC4)ccc3C2=O)C(=O)N1 (centres unmarked) [Compound 46] | 8.72
